In PubChem BioAssay (NCI):
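How tested: cells in 96-well plates exposed to compound for 48 hours at five concentrations. Definition used: TGI = concentration required for complete inhibition of growth.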

Experiments:
Experiment in all cases: NCI tumour cell line growth inhibition, 48 h
LXFL 529 NSCLC = test system: LXFL 529 NSCLC
M19-MEL melanoma = test system: M19-MEL melanoma
HOP-18 NSCLC = test system: HOP-18 NSCLC
P388 leukemia = test system: P388 leukemia
P388/ADR leukemia = test system: P388/ADR leukemia
SN12K1 renal = test system: SN12K1 renal

Q: Which results are given for COc1ccc(NC(=S)NNC(=O)c2nsc3ccccc23)cc1?
A: TGI (LXFL 529 NSCLC): > 100 µM; TGI (M19-MEL melanoma): > 100 µM

Q: With c1ccc2c(c1)OCCc1cn[nH]c1-2 as the molecule, how does the TGI (HOP-18 NSCLC) read?
A: > 100 µM

Q: What about the TGI (P388 leukemia) of the same molecule?
A: > 100 µM

Q: And the TGI (P388/ADR leukemia)?
A: > 100 µM

Q: What about the TGI (SN12K1 renal) of the same molecule?
A: > 100 µM

Q: For O=NN1C(c2ccccc2)C2CCCC(C2=O)C1c1ccccc1 (configuration not stated), which TGI (HOP-18 NSCLC) is on record?
A: > 25.2 µM

Q: What about the TGI (M19-MEL melanoma) of the same molecule?
A: 37.1 µM

Q: And the TGI (P388 leukemia)?
A: > 64.1 µM

Q: And the TGI (P388/ADR leukemia)?
A: 45.9 µM

Q: What about the TGI (SN12K1 renal) of the same molecule?
A: > 71.3 µM

Q: How did the TGI (LXFL 529 NSCLC) turn out when NC1C=NNC1=O (configuration not stated) was run?
A: > 100 µM
